Assay results published in patent publication US10258556B2, “Anti-aging peptide, its composition and method of using the same” (priority 2017, dated 2019).
Residues, ends and D or L forms follow the SMILES beside them.

System: CCD-966SK fibroblast cells
Assay: MTT assay (cell viability)
Type: cell-based, human
Details: peptide at different concentrations, 24, 48 and 72 hours, FIG. 3
Description: CCD-966SK was skin fibroblast cells isolated from human breast and was purchased from BCRC (Bioresource Collection and Research Center, Hsinchu, Taiwan). It was cultured in Dulbecco's Modified Eagle Medium (DMEM) containing 10% (v/v) FBS and penicillin/streptomycin (100 IU/[…]) in 5% CO2 at 37° C.
The cells (3×10^3) in 100 μl complete DMEM were seeded in 96-well plates with or without MUC20 peptide NO.10. Ten microliters of 5 mg/ml 3-(4,5-dimethyl-2-thiazolyl)-2,5-diphenyl-2H-tetrazolium bromide solution (MTT; Sigma) was added to each well and incubated at 37° C. for 3 hours. After that, 100 μl 10% SDS in 0.01N HCl was added to dissolve the MTT formazan crystals. The resultant optical density was measured by spectrophotometry at dual wavelengths, 550 and 630 nm.
The cell viability of the CCD-966SK fibroblast cells was analyzed by MTT assays. The results were obtained from three independent experiments. The results of the cells treated with the peptide of SEQ ID NO: 1 for 24 hours (upper panel), 48 hours (middle panel), and 72 hours (lower panel) were shown in FIG. 3.

C[C@H](NC(=O)[C@H](CCC(=O)O)NC(=O)[C@@H](NC(=O)[C@H](CO)NC(=O)[C@H](CC(=O)O)NC(=O)[C@@H]1CCCN1)[C@@H](C)O)C(=O)N[C@@H](CCCCN)C(=O)O [peptide of SEQ ID NO: 1, ProAspSerThrGluAlaLys] (H-PDSTEAK-OH)
viability of the CCD-966SK fibroblast cells: did not significantly affect viability
